Measurements published in patent US20080058293A1, “Quinoline Derivates and Their Use in Therapy” (priority 2003, published 2008).
Where a name gives a salt, the structure may show the parent alone.

Target: T1, P2X7 receptor (Homo sapiens, UniProt Q99572)
T1 construct: 200 μl of a suspension of THP-1 cells; endogenous in cells; host or cells: THP-1 cells
T1 sequence (Q99572 1-595): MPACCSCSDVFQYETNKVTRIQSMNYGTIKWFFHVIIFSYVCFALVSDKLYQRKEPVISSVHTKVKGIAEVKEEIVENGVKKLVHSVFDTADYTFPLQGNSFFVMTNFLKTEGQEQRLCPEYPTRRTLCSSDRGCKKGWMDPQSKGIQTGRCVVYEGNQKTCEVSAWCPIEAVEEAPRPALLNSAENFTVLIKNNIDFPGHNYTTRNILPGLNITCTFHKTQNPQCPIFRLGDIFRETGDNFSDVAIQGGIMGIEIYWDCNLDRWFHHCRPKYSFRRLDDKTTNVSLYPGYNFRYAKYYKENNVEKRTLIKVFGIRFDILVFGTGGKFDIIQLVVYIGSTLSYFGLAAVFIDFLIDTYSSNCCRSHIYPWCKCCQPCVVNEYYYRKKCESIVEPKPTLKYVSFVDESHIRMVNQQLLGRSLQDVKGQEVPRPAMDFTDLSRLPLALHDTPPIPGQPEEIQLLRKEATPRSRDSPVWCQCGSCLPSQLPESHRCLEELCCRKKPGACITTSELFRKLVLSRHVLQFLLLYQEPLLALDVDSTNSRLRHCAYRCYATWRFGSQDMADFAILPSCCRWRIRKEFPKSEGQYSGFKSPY
Experiment: bbATP-induced ethidium bromide fluorescence in THP-1 cells, P2X7 receptor antagonist activity
Assay type: cell-based
Settings: negative logarithm of concentration reducing bbATP agonist activity by 50%, 10^-5M bbATP, 37° C. one hour
Description: Certain compounds such as benzoylbenzoyl adenosine triphosphate (bbATP) are known to be agonists of the P2X7 receptor, effecting the formation of pores in the plasma membrane (Drug Development Research (1996), 37(3), p. 126). Consequently, when the receptor is activated using bbATP in the presence of ethidium bromide (a fluorescent DNA probe), an increase in the fluorescence of intracellular DNA-bound ethidium bromide is observed. The increase in fluorescence can be used as a measure of P2X7 receptor activation and therefore to quantify the effect of a compound on the P2X7 receptor.
In this manner, each of the title compounds of the Examples was tested for antagonist activity at the P2X7 receptor. Thus, the test was performed in 96-well flat bottomed microtitre plates, the wells being filled with 250 μl of test solution comprising 200 μl of a suspension of THP-1 cells (2.5×10^6 cells/ml) containing 10^−4M ethidium bromide, 25 μl of a high potassium buffer solution containing 10^−5M bbATP, and 25 μl of the high potassium buffer solution containing 3×10^−5M test compound. The plate was covered with a plastics sheet and incubated at 37° C. for one hour. The plate was then read in a Perkin-Elmer fluorescent plate reader, excitation 520 nm, emission 595 nm, slit widths: Ex 15 nm, Em 20 nm. For the purposes of comparison, bbATP (a P2X7 receptor agonist) and pyridoxal 5-phosphate (a P2X7 receptor antagonist) were used separately in the test as controls.

Row | IC50 [nM] | SMILES
1 | 31.6 | CNCCCN(C)c1ccc2c(NC(=O)C[C@@H](C)c3ccccc3)c(Cl)ccc2n1 [Example 3, (βR)-N-[6-Chloro-2-[methyl[3-(methylamino)propyl]amino]-5-quinolinyl]-β-methyl-benzenepropanamide, ditrifluoroacetate]
2 | 316 | Cc1ccc2c(C(=O)NC[C@H](C)c3ccccc3)c(Cl)ccc2n1 [Example 1, 6-Chloro-2-methyl-N-[(2R)-2-phenylpropyl]-5-quinolinecarboxamide, hydrochloride]
